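Briefly, cells in 96-well plates were exposed to five compound concentrations for 48 h, and endpoints were estimated by linear interpolation. Abbreviation: GI50, concentration required for 50% inhibition of growth. TGI is the concentration that stops growth completely.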
How the values were obtained:
Assay in all cases: DTP human tumour cell line panel, 48 h
786-0 renal = system: 786-0 renal
A498 renal = system: A498 renal
A549 NSCLC = system: A549 NSCLC
ACHN renal = system: ACHN renal
BT-549 breast = system: BT-549 breast
CAKI-1 renal = system: CAKI-1 renal
CCRF-CEM leukemia = system: CCRF-CEM leukemia
COLO 205 colon = system: COLO 205 colon
DU-145 prostate = system: DU-145 prostate
EKVX NSCLC = system: EKVX NSCLC
HCC-2998 colon = system: HCC-2998 colon
HCT-116 colon = system: HCT-116 colon
HCT-15 colon = system: HCT-15 colon
HL-60(TB) leukemia = system: HL-60(TB) leukemia
HOP-62 NSCLC = system: HOP-62 NSCLC
HOP-92 NSCLC = system: HOP-92 NSCLC
HS 578T breast = system: HS 578T breast
HT29 colon = system: HT29 colon
IGROV1 ovarian = system: IGROV1 ovarian
K-562 leukemia = system: K-562 leukemia
KM12 colon = system: KM12 colon
LOX IMVI melanoma = system: LOX IMVI melanoma
M14 melanoma = system: M14 melanoma
MALME-3M melanoma = system: MALME-3M melanoma
MCF7 breast = system: MCF7 breast
MDA-MB-231 breast = system: MDA-MB-231 breast
MDA-MB-435 = system: MDA-MB-435
MOLT-4 leukemia = system: MOLT-4 leukemia
NCI-H226 lung = system: NCI-H226 lung
NCI-H23 lung = system: NCI-H23 lung
NCI-H460 lung = system: NCI-H460 lung
NCI-H522 lung = system: NCI-H522 lung
NCI/ADR-RES ovarian = system: NCI/ADR-RES ovarian
OVCAR-3 ovarian = system: OVCAR-3 ovarian
OVCAR-4 ovarian = system: OVCAR-4 ovarian
OVCAR-5 ovarian = system: OVCAR-5 ovarian
OVCAR-8 ovarian = system: OVCAR-8 ovarian
PC-3 prostate = system: PC-3 prostate
RPMI-8226 leukemia = system: RPMI-8226 leukemia
RXF 393 renal = system: RXF 393 renal
SF-268 CNS = system: SF-268 CNS
SF-295 CNS = system: SF-295 CNS
SF-539 CNS = system: SF-539 CNS
SK-MEL-2 melanoma = system: SK-MEL-2 melanoma
SK-MEL-28 melanoma = system: SK-MEL-28 melanoma
SK-MEL-5 melanoma = system: SK-MEL-5 melanoma
SK-OV-3 ovarian = system: SK-OV-3 ovarian
SN12C renal = system: SN12C renal
SNB-19 CNS = system: SNB-19 CNS
SNB-75 CNS = system: SNB-75 CNS
SR leukemia = system: SR leukemia
SW-620 colon = system: SW-620 colon
T-47D breast = system: T-47D breast
TK-10 renal = system: TK-10 renal
U251 CNS = system: U251 CNS
UACC-257 melanoma = system: UACC-257 melanoma
UACC-62 melanoma = system: UACC-62 melanoma
UO-31 renal = system: UO-31 renal

## COC(=O)C1=CN(CC2=CC(=O)C(C)=CC2=O)C=C(C(=O)OC)C1c1cc(OC)ccc1OC
786-0 renal
  GI50: 2.28 µM
  TGI: 5.54 µM
A498 renal
  GI50: 15 µM
  TGI: 29.7 µM
A549 NSCLC
  GI50: 13.5 µM
  TGI: 31.2 µM
ACHN renal
  GI50: 1.85 µM
  TGI: 3.87 µM
BT-549 breast
  GI50: 17.1 µM
  TGI: 41.7 µM
CAKI-1 renal
  GI50: 6.38 µM
  TGI: 13.5 µM
CCRF-CEM leukemia
  GI50: 1.73 µM
  TGI: 3.61 µM
COLO 205 colon
  GI50: 8.56 µM
  TGI: 30.6 µM
DU-145 prostate
  GI50: 13.8 µM
  TGI: 26.8 µM
EKVX NSCLC
  GI50: 16 µM
  TGI: 31.8 µM
HCC-2998 colon
  GI50: 5.79 µM
  TGI: 13.4 µM
HCT-116 colon
  GI50: 1.87 µM
  TGI: 3.28 µM
HCT-15 colon
  GI50: 13.5 µM
  TGI: 30 µM
HL-60(TB) leukemia
  GI50: 6.8 µM
  TGI: 99.4 µM
HOP-62 NSCLC
  GI50: 19.9 µM
  TGI: 38 µM
HOP-92 NSCLC
  GI50: 0.658 µM
  TGI: 11.9 µM
HS 578T breast
  GI50: 4.54 µM
  TGI: 27.3 µM
HT29 colon
  GI50: 4.71 µM
  TGI: > 100 µM
IGROV1 ovarian
  GI50: 16.6 µM
  TGI: 43.1 µM
K-562 leukemia
  GI50: 3.85 µM
KM12 colon
  GI50: 16.1 µM
  TGI: 31.7 µM
LOX IMVI melanoma
  GI50: 13.7 µM
  TGI: 26.6 µM
M14 melanoma
  GI50: 12.1 µM
  TGI: 26.5 µM
MALME-3M melanoma
  GI50: 20 µM
  TGI: 36 µM
MCF7 breast
  GI50: 22.7 µM
  TGI: > 92.2 µM
MDA-MB-231 breast
  GI50: 15.7 µM
  TGI: 30.2 µM
MDA-MB-435
  GI50: 16.7 µM
  TGI: 31.2 µM
MOLT-4 leukemia
  GI50: 2.21 µM
NCI-H226 lung
  GI50: 20.1 µM
  TGI: 54.3 µM
NCI-H23 lung
  GI50: 13.4 µM
  TGI: 28.6 µM
NCI-H460 lung
  GI50: 20.4 µM
  TGI: > 95.8 µM
NCI-H522 lung
  GI50: 18.9 µM
  TGI: > 56.2 µM
NCI/ADR-RES ovarian
  GI50: 15.7 µM
  TGI: 39.2 µM
OVCAR-3 ovarian
  GI50: 12.5 µM
  TGI: 29.2 µM
OVCAR-4 ovarian
  GI50: 12.5 µM
  TGI: 30.9 µM
OVCAR-5 ovarian
  GI50: 13.9 µM
  TGI: 28 µM
OVCAR-8 ovarian
  GI50: 12.9 µM
  TGI: 38.4 µM
PC-3 prostate
  GI50: 9.42 µM
  TGI: 24.7 µM
RPMI-8226 leukemia
  GI50: 1.9 µM
  TGI: 4.83 µM
RXF 393 renal
  GI50: 3 µM
  TGI: 11.6 µM
SF-268 CNS
  GI50: 13.8 µM
  TGI: 31.3 µM
SF-295 CNS
  GI50: 18.5 µM
  TGI: 38 µM
SF-539 CNS
  GI50: 16.6 µM
  TGI: 31.9 µM
SK-MEL-2 melanoma
  GI50: 24 µM
  TGI: > 73 µM
SK-MEL-28 melanoma
  GI50: 15.4 µM
  TGI: 40.5 µM
SK-MEL-5 melanoma
  GI50: 14.8 µM
  TGI: 29.1 µM
SK-OV-3 ovarian
  GI50: 23 µM
  TGI: > 54.8 µM
SN12C renal
  GI50: 16 µM
  TGI: 33.2 µM
SNB-19 CNS
  GI50: 14.1 µM
  TGI: 48.1 µM
SNB-75 CNS
  GI50: 25.4 µM
  TGI: 74.1 µM
SR leukemia
  GI50: 2.59 µM
  TGI: > 22.3 µM
SW-620 colon
  GI50: 3.38 µM
  TGI: 11.6 µM
T-47D breast
  GI50: 3.03 µM
  TGI: > 100 µM
TK-10 renal
  GI50: 10.7 µM
  TGI: 36.8 µM
U251 CNS
  GI50: 6.87 µM
  TGI: 20.2 µM
UACC-257 melanoma
  GI50: 14.1 µM
  TGI: 27.4 µM
UACC-62 melanoma
  GI50: 13.3 µM
  TGI: 26.4 µM
UO-31 renal
  GI50: 4.94 µM
  TGI: 9.44 µM

## CC(C)OC(=O)c1cc(NS(=O)(=O)c2ccc3ccccc3c2)cc(C(=O)OC(C)C)c1
786-0 renal
  GI50: 30.9 µM
  TGI: > 100 µM
A498 renal
  GI50: 17.2 µM
  TGI: 54.9 µM
A549 NSCLC
  GI50: 27.1 µM
  TGI: 93.5 µM
ACHN renal
  GI50: 33.1 µM
  TGI: > 100 µM
BT-549 breast
  GI50: 17.2 µM
  TGI: 43.2 µM
CAKI-1 renal
  GI50: 36.4 µM
  TGI: > 100 µM
CCRF-CEM leukemia
  GI50: 22.5 µM
  TGI: 88.9 µM
COLO 205 colon
  GI50: 16 µM
  TGI: 34.3 µM
DU-145 prostate
  GI50: 28.8 µM
  TGI: > 100 µM
EKVX NSCLC
  GI50: 25 µM
  TGI: 89.2 µM
HCC-2998 colon
  GI50: 17.3 µM
  TGI: 47.2 µM
HCT-116 colon
  GI50: 24.2 µM
  TGI: > 100 µM
HCT-15 colon
  GI50: 28.4 µM
  TGI: > 100 µM
HL-60(TB) leukemia
  GI50: 24.2 µM
  TGI: 65.8 µM
HOP-62 NSCLC
  GI50: 33.1 µM
  TGI: > 100 µM
HOP-92 NSCLC
  GI50: 24.9 µM
  TGI: 64.9 µM
HS 578T breast
  GI50: 20.7 µM
  TGI: 49.8 µM
HT29 colon
  GI50: 34.1 µM
  TGI: > 100 µM
IGROV1 ovarian
  GI50: 35.2 µM
  TGI: > 100 µM
K-562 leukemia
  GI50: 29.6 µM
  TGI: > 100 µM
KM12 colon
  GI50: 32.3 µM
  TGI: > 100 µM
LOX IMVI melanoma
  GI50: 28.5 µM
  TGI: > 100 µM
M14 melanoma
  GI50: 17.6 µM
  TGI: 46.8 µM
MALME-3M melanoma
  GI50: 32.7 µM
  TGI: > 100 µM
MCF7 breast
  GI50: 12.3 µM
  TGI: 45.3 µM
MDA-MB-231 breast
  GI50: 21.4 µM
  TGI: 76.5 µM
MDA-MB-435
  GI50: 23.1 µM
  TGI: 73.2 µM
MOLT-4 leukemia
  GI50: 22 µM
  TGI: 63.4 µM
NCI-H226 lung
  GI50: 26.8 µM
  TGI: > 100 µM
NCI-H23 lung
  GI50: 21.9 µM
  TGI: 73.9 µM
NCI-H460 lung
  GI50: 13.4 µM
  TGI: 38.8 µM
NCI-H522 lung
  GI50: 18.3 µM
  TGI: 45.9 µM
NCI/ADR-RES ovarian
  GI50: 16.3 µM
  TGI: 56.6 µM
OVCAR-3 ovarian
  GI50: 24 µM
  TGI: 94.7 µM
OVCAR-4 ovarian
  GI50: 22 µM
  TGI: 82.3 µM
OVCAR-5 ovarian
  GI50: 18.3 µM
  TGI: 48.8 µM
PC-3 prostate
  GI50: 23.8 µM
  TGI: 91.8 µM
RPMI-8226 leukemia
  GI50: 15.6 µM
  TGI: 45.3 µM
RXF 393 renal
  GI50: 20.9 µM
  TGI: > 100 µM
SF-268 CNS
  GI50: 15.8 µM
  TGI: 57.3 µM
SF-295 CNS
  GI50: 22.2 µM
  TGI: 79.7 µM
SF-539 CNS
  GI50: 24.6 µM
  TGI: 61.3 µM
SK-MEL-2 melanoma
  GI50: 26.2 µM
  TGI: 73.6 µM
SK-MEL-28 melanoma
  GI50: 24.6 µM
  TGI: 73.2 µM
SK-MEL-5 melanoma
  GI50: 16 µM
  TGI: 31.8 µM
SK-OV-3 ovarian
  GI50: 32.3 µM
  TGI: > 100 µM
SN12C renal
  GI50: 29.9 µM
  TGI: > 100 µM
SNB-19 CNS
  GI50: 33.5 µM
  TGI: > 100 µM
SNB-75 CNS
  GI50: 23.9 µM
  TGI: 66.2 µM
SR leukemia
  GI50: 24.5 µM
  TGI: 76.2 µM
SW-620 colon
  GI50: 30.3 µM
  TGI: > 100 µM
T-47D breast
  GI50: 17.6 µM
  TGI: 58.5 µM
TK-10 renal
  GI50: 45.2 µM
  TGI: > 100 µM
U251 CNS
  GI50: 31.7 µM
  TGI: > 100 µM
UACC-257 melanoma
  GI50: 30.5 µM
  TGI: > 100 µM
UACC-62 melanoma
  GI50: 17 µM
  TGI: 48.6 µM
UO-31 renal
  GI50: 26.4 µM
  TGI: > 100 µM
